For nine molecules, IC50 and Nav1.4/Nav1.7 results are on record in patent US10344060B2 (priority 2013, dated 2019).

In general, IC50 refers to the point on the concentration scale where inhibition reaches its midpoint.

What all share (experiment): cell-based
For test [1], the target named is hNav1.5 (Homo sapiens, UniProt Q14524). The note with it: IonWorks Quattro; Table 6; read-out: IC50 (μM) Nav1.5. A general note: In patch-clamp work, channel activity is measured electrically.
Test [2] has as its target hNav1.3 (Homo sapiens, UniProt Q9NY46). The note with it: IonWorks Quattro; Table 6; read-out: IC50 (μM) Nav1.3.
Test [3] addresses hNav1.4 (Homo sapiens, UniProt P35499). Type of test: cell-based. The following applies: Table 6; for IC50: IonWorks Quattro, read-out: IC50 (μM) Nav1.4; for Nav1.4/Nav1.7: ratio of IonWorks Quattro IC50 values.
The target in test [4] is hNav1.7 (Homo sapiens, UniProt Q15858). The following applies: read-out: IC50 (μM) Nav1.7.
hNav1.7, sequence (Q15858 whole entry): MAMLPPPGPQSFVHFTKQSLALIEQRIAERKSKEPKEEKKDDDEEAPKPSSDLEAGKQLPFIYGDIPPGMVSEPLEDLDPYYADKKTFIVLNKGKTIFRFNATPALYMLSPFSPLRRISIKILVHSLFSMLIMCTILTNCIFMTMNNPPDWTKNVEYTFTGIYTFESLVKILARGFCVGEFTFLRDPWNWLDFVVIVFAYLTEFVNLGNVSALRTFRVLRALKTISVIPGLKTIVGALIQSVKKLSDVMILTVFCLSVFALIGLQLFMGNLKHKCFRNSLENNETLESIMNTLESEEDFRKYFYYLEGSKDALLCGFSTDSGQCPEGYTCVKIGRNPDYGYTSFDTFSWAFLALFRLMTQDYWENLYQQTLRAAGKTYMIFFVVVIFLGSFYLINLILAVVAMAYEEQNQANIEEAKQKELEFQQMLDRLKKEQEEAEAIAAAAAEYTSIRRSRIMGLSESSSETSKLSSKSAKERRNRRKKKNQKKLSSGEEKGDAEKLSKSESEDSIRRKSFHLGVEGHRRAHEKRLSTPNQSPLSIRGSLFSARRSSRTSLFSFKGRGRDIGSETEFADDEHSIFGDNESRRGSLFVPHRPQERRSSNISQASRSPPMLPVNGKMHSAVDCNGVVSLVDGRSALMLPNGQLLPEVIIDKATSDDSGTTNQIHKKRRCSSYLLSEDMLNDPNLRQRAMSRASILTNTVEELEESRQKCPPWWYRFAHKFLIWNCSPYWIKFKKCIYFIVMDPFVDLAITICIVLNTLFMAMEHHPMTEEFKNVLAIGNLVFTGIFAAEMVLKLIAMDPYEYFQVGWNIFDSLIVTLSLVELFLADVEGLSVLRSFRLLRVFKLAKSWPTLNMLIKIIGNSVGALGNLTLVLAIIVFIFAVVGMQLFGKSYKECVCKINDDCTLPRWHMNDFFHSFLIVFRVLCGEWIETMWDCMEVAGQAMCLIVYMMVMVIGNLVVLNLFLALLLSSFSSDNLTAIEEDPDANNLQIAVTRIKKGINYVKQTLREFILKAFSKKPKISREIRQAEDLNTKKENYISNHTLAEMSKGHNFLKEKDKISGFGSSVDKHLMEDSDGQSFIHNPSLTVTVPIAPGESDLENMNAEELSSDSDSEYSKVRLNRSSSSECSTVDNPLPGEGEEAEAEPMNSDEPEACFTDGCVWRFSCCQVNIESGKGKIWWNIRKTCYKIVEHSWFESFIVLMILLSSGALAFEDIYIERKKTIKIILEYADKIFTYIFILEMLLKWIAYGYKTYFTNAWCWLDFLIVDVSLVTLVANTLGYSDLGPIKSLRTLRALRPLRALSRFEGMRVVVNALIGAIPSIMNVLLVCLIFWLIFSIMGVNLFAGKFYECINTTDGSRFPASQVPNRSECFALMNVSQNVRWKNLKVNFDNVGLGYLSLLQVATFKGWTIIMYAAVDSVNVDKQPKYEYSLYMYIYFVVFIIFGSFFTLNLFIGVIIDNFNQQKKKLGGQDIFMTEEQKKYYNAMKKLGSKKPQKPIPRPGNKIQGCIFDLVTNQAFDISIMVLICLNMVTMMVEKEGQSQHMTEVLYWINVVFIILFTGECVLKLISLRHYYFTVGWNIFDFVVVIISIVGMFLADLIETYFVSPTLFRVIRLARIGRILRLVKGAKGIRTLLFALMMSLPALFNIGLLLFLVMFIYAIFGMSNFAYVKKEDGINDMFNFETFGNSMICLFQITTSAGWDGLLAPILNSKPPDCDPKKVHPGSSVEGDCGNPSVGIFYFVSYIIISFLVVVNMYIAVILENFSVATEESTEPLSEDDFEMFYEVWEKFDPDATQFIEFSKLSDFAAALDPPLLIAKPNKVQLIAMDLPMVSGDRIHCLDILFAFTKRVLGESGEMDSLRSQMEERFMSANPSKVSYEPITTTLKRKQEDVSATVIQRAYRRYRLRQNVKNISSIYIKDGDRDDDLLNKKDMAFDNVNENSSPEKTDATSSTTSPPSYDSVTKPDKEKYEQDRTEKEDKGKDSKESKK

A value given as a limit tells only on which side of the number the result lay.

hNav1.3, sequence (Q9NY46 whole entry): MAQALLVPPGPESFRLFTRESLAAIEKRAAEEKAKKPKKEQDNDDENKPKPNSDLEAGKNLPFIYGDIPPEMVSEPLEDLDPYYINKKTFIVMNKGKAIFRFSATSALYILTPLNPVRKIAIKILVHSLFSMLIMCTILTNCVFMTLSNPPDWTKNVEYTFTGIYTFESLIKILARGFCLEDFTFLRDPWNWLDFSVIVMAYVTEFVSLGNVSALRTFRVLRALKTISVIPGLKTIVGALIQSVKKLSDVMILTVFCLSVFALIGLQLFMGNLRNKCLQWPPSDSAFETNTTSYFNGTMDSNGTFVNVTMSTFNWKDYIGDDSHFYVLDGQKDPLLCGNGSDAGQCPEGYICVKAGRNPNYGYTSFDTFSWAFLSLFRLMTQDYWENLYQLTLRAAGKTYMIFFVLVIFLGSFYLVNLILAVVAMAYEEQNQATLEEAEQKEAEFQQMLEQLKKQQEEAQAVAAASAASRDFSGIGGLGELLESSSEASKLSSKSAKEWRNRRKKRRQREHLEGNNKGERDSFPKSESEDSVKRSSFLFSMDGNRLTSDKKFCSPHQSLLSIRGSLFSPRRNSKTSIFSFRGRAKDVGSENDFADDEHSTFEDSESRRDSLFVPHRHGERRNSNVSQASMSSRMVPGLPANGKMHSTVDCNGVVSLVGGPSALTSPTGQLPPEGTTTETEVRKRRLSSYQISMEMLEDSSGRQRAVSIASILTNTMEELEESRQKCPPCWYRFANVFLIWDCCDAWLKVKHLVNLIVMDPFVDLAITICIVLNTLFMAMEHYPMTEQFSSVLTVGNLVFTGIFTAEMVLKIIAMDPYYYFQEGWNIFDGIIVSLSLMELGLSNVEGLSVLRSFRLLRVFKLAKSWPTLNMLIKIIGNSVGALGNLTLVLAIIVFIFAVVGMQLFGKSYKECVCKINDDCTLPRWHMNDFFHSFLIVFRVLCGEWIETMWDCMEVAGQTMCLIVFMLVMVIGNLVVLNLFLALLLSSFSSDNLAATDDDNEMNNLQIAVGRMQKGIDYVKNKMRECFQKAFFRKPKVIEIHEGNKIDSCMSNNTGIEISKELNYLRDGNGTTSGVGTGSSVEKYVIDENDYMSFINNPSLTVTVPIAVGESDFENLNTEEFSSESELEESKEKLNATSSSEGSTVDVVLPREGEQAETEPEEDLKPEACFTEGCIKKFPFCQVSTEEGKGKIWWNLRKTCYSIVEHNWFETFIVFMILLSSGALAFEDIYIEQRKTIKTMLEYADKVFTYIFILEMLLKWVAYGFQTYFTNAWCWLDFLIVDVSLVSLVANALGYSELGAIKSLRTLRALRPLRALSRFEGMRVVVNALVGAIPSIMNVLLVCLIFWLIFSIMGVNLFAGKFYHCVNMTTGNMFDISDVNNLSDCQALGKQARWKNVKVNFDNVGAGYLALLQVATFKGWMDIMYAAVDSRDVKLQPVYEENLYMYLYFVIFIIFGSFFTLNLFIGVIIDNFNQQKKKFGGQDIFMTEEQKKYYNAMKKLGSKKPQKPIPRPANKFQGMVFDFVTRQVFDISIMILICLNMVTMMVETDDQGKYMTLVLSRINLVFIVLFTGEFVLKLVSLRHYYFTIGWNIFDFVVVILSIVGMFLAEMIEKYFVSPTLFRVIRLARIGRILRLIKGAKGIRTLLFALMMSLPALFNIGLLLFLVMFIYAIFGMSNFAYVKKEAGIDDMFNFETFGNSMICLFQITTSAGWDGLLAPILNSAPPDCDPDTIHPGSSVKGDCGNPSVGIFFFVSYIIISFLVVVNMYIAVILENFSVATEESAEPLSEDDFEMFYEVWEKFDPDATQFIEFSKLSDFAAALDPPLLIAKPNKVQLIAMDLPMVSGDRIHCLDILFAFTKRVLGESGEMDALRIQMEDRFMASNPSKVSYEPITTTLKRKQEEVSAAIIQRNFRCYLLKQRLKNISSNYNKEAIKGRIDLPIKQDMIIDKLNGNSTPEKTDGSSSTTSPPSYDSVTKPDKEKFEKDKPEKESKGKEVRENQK

With `CC[C@H](C)[C@H](NC(=O)[C@@H](NC(=O)[C@H](CCCCN)NC(=O)[C@H](CCCNC(=N)N)NC(=O)[C@@H]1CSSC[C@@H]2NC(=O)[C@H](CCCCN)NC(=O)[C@H](CCCNC(=N)N)NC(=O)[C@H](CCCCN)NC(=O)[C@H](CO)NC(=O)[C@H](CC(=O)O)NC(=O)[C@@H]3CSSC[C@H](NC(=O)[C@H](CCCNC(=N)N)NC(=O)[C@H](CC(C)C)NC(=O)CNC(=O)[C@H](CCC(=O)O)NC(=O)[C@H](CSSC[C@H](NC(=O)[C@@H](N)Cc4ccc(O)cc4)C(=O)N[C@@H](CCC(N)=O)C(=O)N[C@@H](CCCCN)C(=O)N[C@@H](Cc4c[nH]c5ccccc45)C(=O)N[C@@H](CCSC)C(=O)N[C@@H](Cc4c[nH]c5ccccc45)C(=O)N[C@@H]([C@@H](C)O)C(=O)N3)NC2=O)C(=O)N[C@@H](CCCCN)C(=O)N[C@@H](CC(C)C)C(=O)N[C@@H](Cc2c[nH]c3ccccc23)C(=O)N1)[C@@H](C)CC)C(N)=O` [compound 80], the IC50 in test [1] is 1.5 µM; in test [2] it was 0.03 µM; in test [3], 0.07 µM; in test [4] it was 0.007 µM. Besides, the Nav1.4/Nav1.7 in test [3] worked out at 10.
For `CC[C@H](C)[C@H](NC(=O)[C@@H](NC(=O)[C@H](CCCCN)NC(=O)[C@H](CCCNC(=N)N)NC(=O)[C@@H]1CSSC[C@@H]2NC(=O)[C@H](C)NC(=O)[C@H](CCCNC(=N)N)NC(=O)[C@H](CCCCN)NC(=O)[C@H](CO)NC(=O)[C@H](CC(=O)O)NC(=O)[C@@H]3CSSC[C@H](NC(=O)[C@H](CCCNC(=N)N)NC(=O)[C@H](CC(C)C)NC(=O)CNC(=O)[C@H](CCCCN)NC(=O)[C@H](CSSC[C@H](NC(=O)[C@@H](N)Cc4ccc(O)cc4)C(=O)N[C@@H](CCC(N)=O)C(=O)N[C@@H](CCCCN)C(=O)N[C@@H](Cc4c[nH]c5ccccc45)C(=O)N[C@@H](CCSC)C(=O)N[C@@H](Cc4c[nH]c5ccccc45)C(=O)N[C@@H]([C@@H](C)O)C(=O)N3)NC2=O)C(=O)N[C@@H](CCCCN)C(=O)N[C@@H](CC(C)C)C(=O)N[C@@H](Cc2c[nH]c3ccccc23)C(=O)N1)[C@@H](C)CC)C(N)=O` [compound 81] the same measures were 0.89 µM, 0.03 µM, 0.05 µM, 0.01 µM and 5.
Consider `CC[C@H](C)[C@H](NC(=O)[C@@H](NC(=O)[C@H](CCCCN)NC(=O)[C@H](CCCNC(=N)N)NC(=O)[C@@H]1CSSC[C@@H]2NC(=O)[C@H](C)NC(=O)[C@H](CCCNC(=N)N)NC(=O)[C@H](CCCCN)NC(=O)[C@H](CO)NC(=O)[C@H](CC(=O)O)NC(=O)[C@@H]3CSSC[C@H](NC(=O)[C@H](CCCCN)NC(=O)[C@H](CC(C)C)NC(=O)CNC(=O)[C@H](CCC(=O)O)NC(=O)[C@H](CSSC[C@H](NC(=O)[C@@H](N)Cc4ccc(O)cc4)C(=O)N[C@@H](CCC(N)=O)C(=O)N[C@@H](CCCCN)C(=O)N[C@@H](Cc4c[nH]c5ccccc45)C(=O)N[C@@H](CCSC)C(=O)N[C@@H](Cc4c[nH]c5ccccc45)C(=O)N[C@@H]([C@@H](C)O)C(=O)N3)NC2=O)C(=O)N[C@@H](CCCCN)C(=O)N[C@@H](CC(C)C)C(=O)N[C@@H](Cc2c[nH]c3ccccc23)C(=O)N1)[C@@H](C)CC)C(N)=O` [compound 84], for which the IC50 was found to be 3.4 µM in test [1], 0.06 µM in test [2], 0.26 µM in test [3] and 0.02 µM in test [4]. In addition, in test [3], the Nav1.4/Nav1.7 amounted to 13.
For `CC[C@H](C)[C@H](NC(=O)[C@@H](NC(=O)[C@H](CCCCN)NC(=O)[C@H](CCCNC(=N)N)NC(=O)[C@@H]1CSSC[C@@H]2NC(=O)[C@H](C)NC(=O)[C@H](CCCNC(=N)N)NC(=O)[C@H](CCCCN)NC(=O)[C@H](CO)NC(=O)[C@H](CC(=O)O)NC(=O)[C@@H]3CSSC[C@H](NC(=O)[C@H](CCCNC(=N)N)NC(=O)[C@H](CC(C)C)NC(=O)CNC(=O)[C@H](CCC(=O)O)NC(=O)[C@H](CSSC[C@H](NC(=O)[C@@H](N)Cc4ccc(O)cc4)C(=O)N[C@@H](CCC(N)=O)C(=O)N[C@@H](CCCCN)C(=O)N[C@@H](Cc4c[nH]c5ccccc45)C(=O)N[C@@H](CCSC)C(=O)N[C@@H](Cc4c[nH]c5ccccc45)C(=O)N[C@@H]([C@@H](C)O)C(=O)N3)NC2=O)C(=O)N[C@@H](CCCCN)C(=O)N[C@@H](CCCCN)C(=O)N[C@@H](Cc2c[nH]c3ccccc23)C(=O)N1)[C@@H](C)CC)C(N)=O` [compound 85] the same measures were 4.1 µM, 0.14 µM, 0.29 µM, 0.24 µM and 1.
For `CC[C@H](C)[C@H](NC(=O)[C@H](CCCCN)NC(=O)[C@H](CCCCN)NC(=O)[C@H](CCCNC(=N)N)NC(=O)[C@@H]1CSSC[C@@H]2NC(=O)[C@H](C)NC(=O)[C@H](CCCNC(=N)N)NC(=O)[C@H](CCCCN)NC(=O)[C@H](CO)NC(=O)[C@H](CC(=O)O)NC(=O)[C@@H]3CSSC[C@H](NC(=O)[C@H](CCCNC(=N)N)NC(=O)[C@H](CC(C)C)NC(=O)CNC(=O)[C@H](CCC(=O)O)NC(=O)[C@H](CSSC[C@H](NC(=O)[C@@H](N)Cc4ccc(O)cc4)C(=O)N[C@@H](CCC(N)=O)C(=O)N[C@@H](CCCCN)C(=O)N[C@@H](Cc4c[nH]c5ccccc45)C(=O)N[C@@H](CCSC)C(=O)N[C@@H](Cc4c[nH]c5ccccc45)C(=O)N[C@@H]([C@@H](C)O)C(=O)N3)NC2=O)C(=O)N[C@@H](CCCCN)C(=O)N[C@@H](CC(C)C)C(=O)N[C@@H](Cc2c[nH]c3ccccc23)C(=O)N1)C(N)=O` [compound 88] the same measures were 1.5 µM, 0.05 µM, 0.11 µM, 0.014 µM and 8.
For `CC[C@H](C)[C@H](NC(=O)[C@H](CCCCN)NC(=O)[C@H](CCCNC(=N)N)NC(=O)[C@@H]1CSSC[C@@H]2NC(=O)[C@H](C)NC(=O)[C@H](CCCNC(=N)N)NC(=O)[C@H](CCCCN)NC(=O)[C@H](CO)NC(=O)[C@H](CC(=O)O)NC(=O)[C@@H]3CSSC[C@H](NC(=O)[C@H](CCCNC(=N)N)NC(=O)[C@H](CC(C)C)NC(=O)CNC(=O)[C@H](CCC(=O)O)NC(=O)[C@H](CSSC[C@H](NC(=O)[C@@H](N)Cc4ccc(O)cc4)C(=O)N[C@@H](CCC(N)=O)C(=O)N[C@@H](CCCCN)C(=O)N[C@@H](Cc4c[nH]c5ccccc45)C(=O)N[C@@H](CCSC)C(=O)N[C@@H](Cc4c[nH]c5ccccc45)C(=O)N[C@@H]([C@@H](C)O)C(=O)N3)NC2=O)C(=O)N[C@@H](CCCCN)C(=O)N[C@@H](CC(C)C)C(=O)N[C@@H](Cc2c[nH]c3ccccc23)C(=O)N1)C(=O)N[C@@H](CCCCN)C(N)=O` [compound 89] the same measures were > 5 µM, 2.4 µM, 1.3 µM, 0.11 µM and 11.
For the molecule `CC[C@H](C)[C@H](NC(=O)[C@@H](NC(=O)[C@H](CCCCN)NC(=O)[C@H](CCCNC(=N)N)NC(=O)[C@@H]1CSSC[C@@H]2NC(=O)[C@H](C)NC(=O)[C@H](CCCNC(=N)N)NC(=O)[C@H](CCCCN)NC(=O)[C@H](CO)NC(=O)[C@H](CC(=O)O)NC(=O)[C@@H]3CSSC[C@H](NC(=O)[C@H](CCCNC(=N)N)NC(=O)[C@H](CC(C)C)NC(=O)CNC(=O)[C@H](CCC(=O)O)NC(=O)[C@H](CSSC[C@H](NC(=O)[C@@H](N)CCCNC(=N)N)C(=O)N[C@@H](CCC(N)=O)C(=O)N[C@@H](CCCCN)C(=O)N[C@@H](Cc4c[nH]c5ccccc45)C(=O)N[C@@H](CCSC)C(=O)N[C@@H](Cc4c[nH]c5ccccc45)C(=O)N[C@@H]([C@@H](C)O)C(=O)N3)NC2=O)C(=O)N[C@@H](CCCCN)C(=O)N[C@@H](CC(C)C)C(=O)N[C@@H](Cc2c[nH]c3ccccc23)C(=O)N1)[C@@H](C)CC)C(N)=O` [compound 90], the IC50 worked out at 1.8 µM in test [1], 0.04 µM in test [2], 0.12 µM in test [3] and 0.005 µM in test [4]. Further, the Nav1.4/Nav1.7 in test [3] is recorded as 24.
For `CC[C@H](C)[C@H](NC(=O)[C@@H](NC(=O)[C@H](CCCCN)NC(=O)[C@H](CCCNC(=N)N)NC(=O)[C@@H]1CSSC[C@@H]2NC(=O)[C@H](C)NC(=O)[C@H](CCCNC(=N)N)NC(=O)[C@H](CCCCN)NC(=O)[C@H](CO)NC(=O)[C@H](CC(=O)O)NC(=O)[C@@H]3CSSC[C@H](NC(=O)[C@H](CCCNC(=N)N)NC(=O)[C@H](CC(C)C)NC(=O)CNC(=O)[C@H](CCC(=O)O)NC(=O)[C@H](CSSC[C@H](NC(=O)[C@@H](N)Cc4ccc(O)cc4)C(=O)N[C@@H](CCCNC(=N)N)C(=O)N[C@@H](CCCCN)C(=O)N[C@@H](Cc4c[nH]c5ccccc45)C(=O)N[C@@H](CCSC)C(=O)N[C@@H](Cc4c[nH]c5ccccc45)C(=O)N[C@@H]([C@@H](C)O)C(=O)N3)NC2=O)C(=O)N[C@@H](CCCCN)C(=O)N[C@@H](CC(C)C)C(=O)N[C@@H](Cc2c[nH]c3ccccc23)C(=O)N1)[C@@H](C)CC)C(N)=O` [compound 91] the same measures were 3.2 µM, 0.06 µM, 0.14 µM, 0.025 µM and 6.
For `CC[C@H](C)[C@H](NC(=O)[C@@H](NC(=O)[C@H](CCCCN)NC(=O)[C@H](CCCNC(=N)N)NC(=O)[C@@H]1CSSC[C@@H]2NC(=O)[C@H](C)NC(=O)[C@H](CCCNC(=N)N)NC(=O)[C@H](CCCCN)NC(=O)[C@H](CO)NC(=O)[C@H](CC(=O)O)NC(=O)[C@@H]3CSSC[C@H](NC(=O)[C@H](CCCNC(=N)N)NC(=O)[C@H](CC(C)C)NC(=O)CNC(=O)[C@H](CCC(=O)O)NC(=O)[C@H](CSSC[C@H](NC(=O)[C@@H](N)Cc4ccc(O)cc4)C(=O)N[C@@H](CCC(N)=O)C(=O)N[C@@H](CCCNC(=N)N)C(=O)N[C@@H](Cc4c[nH]c5ccccc45)C(=O)N[C@@H](CCSC)C(=O)N[C@@H](Cc4c[nH]c5ccccc45)C(=O)N[C@@H]([C@@H](C)O)C(=O)N3)NC2=O)C(=O)N[C@@H](CCCCN)C(=O)N[C@@H](CC(C)C)C(=O)N[C@@H](Cc2c[nH]c3ccccc23)C(=O)N1)[C@@H](C)CC)C(N)=O` [compound 92] the same measures were 2 µM, 0.07 µM, 0.16 µM, 0.014 µM and 11.
